# Source: US4146622A, “Aziridinyl quinone anti-transplanted tumor agents” (priority 1977, dated 1979)
# “And” between values parts separate entries of the source, which are not always exact repeats. Equal values may be shown once. “Also recorded” adds a separate entry of the source. Read-outs that look alike come from different tables or passages of the source.
# Legend:
# lymphoid leukemia L1210 [1] = conditions: cited from earlier work; for antitumor activity, prior testing: L1210 system, prior/literature
# lymphoid leukemia L1210 [2] = experiment: Intraperitoneal (IP) lymphoid leukemia L1210 transplanted mouse tumor test; format: in vivo, murine; conditions: for OD (optimum dose) / ILS (percentage increase in life span) / T - C (average weight change of test group minus control) / animals alive per 6 test animals on day of termination: Table VIII; for T - C (average weight change of test group minus control): day 5; for animals alive per 6 test animals on day of termination / survivors (number in parentheses) IP L1210: day 30; for ILS (%) IP L1210 / survivors (number in parentheses) IP L1210: Table XI; for ILS (%) IP L1210: outstanding activity; for survivors (number in parentheses) IP L1210: per 6 test animals
# Text: ^(a) Day 1-9 treatment schedule (9 injections)
# ^(b) Day 1,5,9 treatment schedule (3 injections)
# ^(c) Day 1 only treatment schedule (1 injection)
# ^(f) Percentage increase in life span of treated animals [(treated
# survival .div. control survival) × 100%] - 100%
# [3] = system: P388 lymphocytic leukemia; experiment: Intraperitoneal (IP) lymphocytic leukemia P388 transplanted mouse tumor test; format: in vivo, murine; conditions: Table IX; for ILS (percentage increase in life span): IP P388, QD1-9, at OD; for OD (optimum dose): IP P388, QD1-9
# Text: ^b Ip tumor implantation, ip QD1-9 treatment schedule.
# The L1210, P388 and B16 test systems described in Table II utilize intraperitoneal (IP) tumor implantation and IP drug treatment while the Lewis lung system employs subcutaneous tumor implantation and IP treatment.
# Aqueous saline solution (0.9%) was used as the drug vehicle. Normally, five doses were employed per experiment with the top dose chosen to produce toxicity. The lower doses were 50% of each preceeding dose.
# Consistent with NCI antitumor test protocols, intraperitoneal (IP) administration of the drug was employed with all five tumor systems investigated. Tumor implantation was IP in the systems designated IP leukemia L1210 and P388 as well as B16 melanoma.
# B16 melanocarcinoma = experiment: Intraperitoneal B16 melanocarcinoma transplanted mouse tumor test; format: in vivo, murine; conditions: for OD (optimum dose) / ILS (percentage increase in life span): Table IX; for OD (optimum dose): B16, QD1-9; for ILS (percentage increase in life span): B16, QD1-9, at OD
# lymphoid leukemia L1210 [4] = experiment: Intracerebral (IC) lymphoid leukemia L1210 test; format: in vivo, murine; conditions: for OD (optimum dose) / ILS (percentage increase in life span): Table X
# ependymoblastoma = experiment: Intracerebral (IC) ependymoblastoma (EM) brain tumor test; format: in vivo, murine; conditions: for antitumor activity: IC ependymoblastoma (EM); for OD (optimum dose) / ILS (percentage increase in life span) / animals alive per 6 test animals on day of termination: Table X, IC ependymoblastoma; for OD (optimum dose): QD1-5; for ILS (percentage increase in life span) / animals alive per 6 test animals on day of termination: QD1-5, at OD; for animals alive per 6 test animals on day of termination / survivors (number in parentheses) EM: day 60; for survivors (number in parentheses) EM: Table XI, per 6 test animals
# Text: ^c Ic tumor implantation, ip QD1-5 treatment schedule.
# ^g Number of animals alive per six test animals on day of termination
# of experiment (day 99 for expt 133 and day 60 for expt 136 and 144).
# A third IC transplanted mouse tumor model, the ependymoblastoma system, was also studied. This system requires intracerebral implantation of a solid tumor fragment while the IC L1210 and IC P388 systems utilize IC inoculated ascites tumor fluid. All three use IP drug treatment however. […] Cures (survivors from the group of six mice on the last day of the experiment) are indicated. Experiments 136 and 144 were terminated on day 60. Since the number of cures was about the same, the differences in T/C values in these two experiments reflect differences in the life span of the two different sets of control animals. Experiment 133 was terminated on day 99 with a resulting higher activity value.
# The hydrophilic dihydroxypropylamino compound (No. 39), which was curative in the IP L1210 and P388 leukemia systems, was active but gave a large spread in ILS values (53-186%). […] Again, its hydrophilic character may present transport problems in this IC tumor system.
# [5] = Room temperature water solubility; format: physicochemical
# Procedure: In the following examples, all melting points are uncorrected and were recorded on a Thomas-Hoover capillary melting point apparatus. Elemental analyses were performed by NIAMDD, NIH, Bethesda, Maryland. Fluoranil, ethyleneimine and 2l -methylethyleneimine were obtained commerically. […] New compounds were identified by nmr and ir spectroscopy. In the tetraamino derivatives, the methylene protons of the aziridine rings usually occurred as a singlet at δ2.0-2.2 in CDCl3 or DMSO-d6. This absorption appeared at δ2.40 (CDCl3) for compound 11. Carbonyl absorption frequencies (nujol mull) occurred in the range 1620-1640 cm^-1 for the tetraamino compounds. Satisfactory elemental analyses (+0.4% of calculated values) are indicated by elemental symbols in Table VII. Room temperature water solubilities were determined by the incremental addition (pipet) of water to a weighed amount of compound with shaking. The solubility values in Table VII must be considered as approximate.
# [6] = Octanol/H2O partition coefficient (log P); format: physicochemical; conditions: Table VII, octanol/H2O
# Text: ^(b) Octanol/H2 O values determined by C. Hansch and M. Yamakawa
# [7] = IP L1210, Day 1 only (1 injection)
# [8] = IP L1210, Q4D(1,5,9) (3 injections)
# [9] = water, Table VII, room temperature, approximate, read-out: Approx. H2O Sol.
compound,measurement,setting,value
"O=C1C(Cl)=C(N2CC2)C(=O)C(Cl)=C1N1CC1 [Compound 4, 2,5-dichloro-3,6-diaziridinyl-1,4-benzoquinone]","antitumor activity, prior testing",lymphoid leukemia L1210 [1],inactive
"COC1=C(Br)C(=O)C(OC)=C(Br)C1=O [Compound 14, 2,5-dibromo-3,6-dimethoxy-1,4-benzoquinone]","antitumor activity, prior testing",lymphoid leukemia L1210 [1],inactive
NC1=C(Cl)C(=O)C(N)=C(Cl)C1=O [Compound 19],"antitumor activity, prior testing",lymphoid leukemia L1210 [1],inactive
"CC(=O)NC1=C(Cl)C(=O)C(NC(C)=O)=C(Cl)C1=O [Compound 20, 2,5-dichloro-3,5-acetylamino-1,4-benzoquinone]","antitumor activity, prior testing",lymphoid leukemia L1210 [1],inactive
CC(=O)NC1=C(N2CC2)C(=O)C(NC(C)=O)=C(N2CC2)C1=O [Compound 27],"antitumor activity, prior testing",lymphoid leukemia L1210 [1],active; also recorded: intraperitoneal (IP) leukemia L1210 activity
COC1=C(N2CC2)C(=O)C(OC)=C(N2CC2)C1=O [Compound 28],"antitumor activity, prior testing",lymphoid leukemia L1210 [1],intraperitoneal (IP) leukemia L1210 activity
"CCNC1=C(N2CC2)C(=O)C(NCC)=C(N2CC2)C1=O [Compound 35, 2,5-Diaziridinyl-3,6-bis(ethylamino)-1,4-benzoquinone]",antitumor activity,"lymphoid leukemia L1210 [2]; IP L1210, tetraaminobenzoquinone series (Table VIII)",activity appears to peak
same,OD (optimum dose),lymphoid leukemia L1210 [2]; [7],1.5 mg/kg/injection
same,ILS (percentage increase in life span),"lymphoid leukemia L1210 [2]; IP L1210, Day 1 only, at OD",68% and 54%
same,OD (optimum dose),lymphoid leukemia L1210 [2]; [8],3.0 mg/kg/injection and 1.5 mg/kg/injection
same,ILS (percentage increase in life span),"lymphoid leukemia L1210 [2]; IP L1210, Q4D(1,5,9), at OD",75% and 57%
same,OD (optimum dose),"lymphoid leukemia L1210 [2]; IP L1210, QD1-9 (9 injections)",1.5 mg/kg/injection
same,ILS (percentage increase in life span),"lymphoid leukemia L1210 [2]; IP L1210, QD1-9, at OD",112% and 91%
same,T - C (average weight change of test group minus control),"lymphoid leukemia L1210 [2]; IP L1210, QD1-9, at OD",-3.3 grams
same,animals alive per 6 test animals on day of termination,"lymphoid leukemia L1210 [2]; IP L1210, QD1-9, at OD",2 and 1
same,ILS (%) IP L1210,lymphoid leukemia L1210 [2],112%
same,survivors (number in parentheses) IP L1210,lymphoid leukemia L1210 [2],2
same,ILS (percentage increase in life span),[3],160% and 103%
same,OD (optimum dose),B16 melanocarcinoma,0.4 mg/kg/injection and 0.7 mg/kg/injection
same,ILS (percentage increase in life span),B16 melanocarcinoma,26% and 24%
same,OD (optimum dose),"lymphoid leukemia L1210 [4]; IC L1210, QD1-9",3.0 mg/kg/injection
same,ILS (percentage increase in life span),"lymphoid leukemia L1210 [4]; IC L1210, QD1-9, at OD",44% and 40%
same,antitumor activity,ependymoblastoma,most active
same,OD (optimum dose),ependymoblastoma,1.5 mg/kg/injection
same,ILS (percentage increase in life span),ependymoblastoma,218% and 187%
same,animals alive per 6 test animals on day of termination,ependymoblastoma,2
same,survivors (number in parentheses) EM,ependymoblastoma,2
same,solubility,[5]; [9],500 µg/mL
NC(=O)CNC1=C(N2CC2)C(=O)C(NCC(N)=O)=C(N2CC2)C1=O [Compound 40],OD (optimum dose),lymphoid leukemia L1210 [2]; [7],10.0 mg/kg/injection
same,ILS (percentage increase in life span),"lymphoid leukemia L1210 [2]; IP L1210, Day 1 only, at OD",21% and 15%
same,OD (optimum dose),lymphoid leukemia L1210 [2]; [8],8.0 mg/kg/injection
same,OD (optimum dose),"lymphoid leukemia L1210 [2]; IP L1210, QD1-9 (9 injections)",10.0 mg/kg/injection
same,ILS (percentage increase in life span),"lymphoid leukemia L1210 [2]; IP L1210, QD1-9, at OD",92% and 91%
same,OD (optimum dose),[3],2.0 mg/kg/injection
same,ILS (percentage increase in life span),[3],85% and 71%
same,ILS (percentage increase in life span),B16 melanocarcinoma,37% and 22%
same,ILS (percentage increase in life span),"lymphoid leukemia L1210 [4]; IC L1210, QD1-9, at OD",16%
same,OD (optimum dose),ependymoblastoma,2.0 mg/kg/injection and 1.0 mg/kg/injection
same,ILS (percentage increase in life span),ependymoblastoma,64% and 50%
same,solubility,[5]; [9],500 µg/mL
"CN(C)C1=C(N2CC2)C(=O)C(N(C)C)=C(N2CC2)C1=O [Compound 41, 2,5-Diaziridinyl-3,6-bis(dimethylamino)-1,4-benzoquinone]",OD (optimum dose),lymphoid leukemia L1210 [2]; [7],1.5 mg/kg/injection
same,ILS (percentage increase in life span),"lymphoid leukemia L1210 [2]; IP L1210, Day 1 only, at OD",21% and 15%
same,OD (optimum dose),lymphoid leukemia L1210 [2]; [8],3.0 mg/kg/injection
same,ILS (percentage increase in life span),"lymphoid leukemia L1210 [2]; IP L1210, Q4D(1,5,9), at OD",120% and 73%
same,animals alive per 6 test animals on day of termination,"lymphoid leukemia L1210 [2]; IP L1210, Q4D(1,5,9), at OD",1
same,ILS (%) IP L1210,lymphoid leukemia L1210 [2],120%
same,survivors (number in parentheses) IP L1210,lymphoid leukemia L1210 [2],1
same,OD (optimum dose),[3],1.0 mg/kg/injection and 0.5 mg/kg/injection
same,ILS (percentage increase in life span),[3],74% and 37%
same,OD (optimum dose),B16 melanocarcinoma,0.2 mg/kg/injection
same,ILS (percentage increase in life span),B16 melanocarcinoma,16% and 12%
same,antitumor activity,lymphoid leukemia L1210 [4]; IC L1210,most active; also recorded: significant activity
same,OD (optimum dose),"lymphoid leukemia L1210 [4]; IC L1210, Q4D(1,5,9)",3.0 mg/kg/injection
same,ILS (percentage increase in life span),"lymphoid leukemia L1210 [4]; IC L1210, Q4D(1,5,9), at OD",72% and 56%
same,ILS (%) IC L1210,"lymphoid leukemia L1210 [4]; Table XI, outstanding activity",72%
same,antitumor activity,ependymoblastoma,among the most active materials
same,OD (optimum dose),ependymoblastoma,1.0 mg/kg/injection and 0.5 mg/kg/injection
same,ILS (percentage increase in life span),ependymoblastoma,215% and 190%
same,animals alive per 6 test animals on day of termination,ependymoblastoma,5 and 4
same,survivors (number in parentheses) EM,ependymoblastoma,5
same,solubility,[5],increases the solubility greatly
same,solubility,[5]; [9],10000 µg/mL
CN(CCO)C1=C(N2CC2)C(=O)C(N(C)CCO)=C(N2CC2)C1=O [Compound 42],OD (optimum dose),lymphoid leukemia L1210 [2]; [8],0.4 mg/kg/injection and 0.2 mg/kg/injection
same,OD (optimum dose),"lymphoid leukemia L1210 [2]; IP L1210, QD1-9 (9 injections)",1.5 mg/kg/injection
same,animals alive per 6 test animals on day of termination,"lymphoid leukemia L1210 [2]; IP L1210, QD1-9, at OD",1
same,ILS (%) IP L1210,lymphoid leukemia L1210 [2],114%
same,survivors (number in parentheses) IP L1210,lymphoid leukemia L1210 [2],1
same,OD (optimum dose),[3],1.6 mg/kg/injection and 0.8 mg/kg/injection
same,ILS (percentage increase in life span),[3],162% and 145%
same,antitumor activity,B16 melanocarcinoma; B16 melanoma,approached minimal reproducible activity
same,OD (optimum dose),B16 melanocarcinoma,0.8 mg/kg/injection
same,ILS (percentage increase in life span),B16 melanocarcinoma,47% and 31%
same,OD (optimum dose),"lymphoid leukemia L1210 [4]; IC L1210, QD1-9",4.0 mg/kg/injection and 2.0 mg/kg/injection
same,ILS (percentage increase in life span),"lymphoid leukemia L1210 [4]; IC L1210, QD1-9, at OD",45% and 32%
same,OD (optimum dose),ependymoblastoma,0.4 mg/kg/injection and 0.2 mg/kg/injection
same,ILS (percentage increase in life span),ependymoblastoma,84% and 69%
same,solubility,[5]; [9],60000 µg/mL
same,logP,[6]; octanol/water,-0.38
"O=C1C(N2CCOCC2)=C(N2CC2)C(=O)C(N2CCOCC2)=C1N1CC1 [Compound 46, 2,5-Diaziridinyl-3,6-dimorpholino-1,4-benzoquinone]",OD (optimum dose),lymphoid leukemia L1210 [2]; [8],6.0 mg/kg/injection
same,T - C (average weight change of test group minus control),"lymphoid leukemia L1210 [2]; IP L1210, Q4D(1,5,9), at OD",-2.6 grams
same,OD (optimum dose),[3],0.5 mg/kg/injection and 0.7 mg/kg/injection
same,ILS (percentage increase in life span),[3],52% and 48%
same,ILS (percentage increase in life span),B16 melanocarcinoma,24% and 17%
same,ILS (percentage increase in life span),ependymoblastoma,134% and 82%
same,solubility,[5]; [9],< 100 µg/mL
same,log P,[6],0.52
"O=C1C(Cl)=C(Cl)C(=O)C(Cl)=C1Cl [chloranil, tetrachlorobenzoquinone]","antitumor activity, prior testing",lymphoid leukemia L1210 [1],inactive
O=C1C(N2CC2)=C(N2CC2)C(=O)C(N2CC2)=C1N1CC1 [tetraaziridinyl derivative],ILS,"lymphoid leukemia L1210 [1]; L1210 leukemia system, earlier evaluation",39%
